Data from the NIST ThermoML archive (doi:10.1021/je9010097).

Experiment: excess molar enthalpy (molar enthalpy of mixing); xn = mol fraction of the nth substance listed
Conditions: 308.15 K, 101 kPa, Liquid, Flow calorimetry

C1COCCN1 [tetrahydro-1,4-oxazine] + C1CCCCC1
Conditions | excess molar enthalpy [kcal/mol]
x2 = 0.1 | 0.146
x2 = 0.201 | 0.261
x2 = 0.3 | 0.354
x2 = 0.401 | 0.418
x2 = 0.5 | 0.446
x2 = 0.6 | 0.436
x2 = 0.7 | 0.392
x2 = 0.801 | 0.312
x2 = 0.9 | 0.195

C1COCCN1 [tetrahydro-1,4-oxazine] + C1CCOCC1
Conditions | excess molar enthalpy [kcal/mol]
x2 = 0.101 | 0.039
x2 = 0.199 | 0.0703
x2 = 0.3 | 0.0946
x2 = 0.401 | 0.109
x2 = 0.501 | 0.115
x2 = 0.6 | 0.11
x2 = 0.702 | 0.0963
x2 = 0.8 | 0.0731
x2 = 0.899 | 0.0411

C1COCCN1 [tetrahydro-1,4-oxazine] + C1COCCO1
Conditions | excess molar enthalpy [kcal/mol]
x2 = 0.108 | 0.0296
x2 = 0.201 | 0.0507
x2 = 0.303 | 0.0681
x2 = 0.403 | 0.0772
x2 = 0.506 | 0.0791
x2 = 0.6 | 0.0753
x2 = 0.703 | 0.0645
x2 = 0.803 | 0.0495
x2 = 0.905 | 0.0272
